The nature of assay [1]: Antiinflammatory activity in human neutrophils assessed as FMLP/cytochalasin B-induced elastase release after 5 mins by spectrophotometry. It counts as functional, cell-based. As to conditions: Neutrophil.
Assay [2] is described as follows: Cytotoxicity against human Huh7.5 cells. It counts as cell-based. The settings on record: Huh-7.
The subject of a further assay is Hepatitis C virus. The assay can be described thus: Antiviral activity against HCV infected in human Huh7.5 cells. It counts as functional, organism-based, Hepacivirus hominis. As to conditions: Huh-7.
A short description of assay [3]: Antiinflammatory activity in human neutrophils assessed as FMLP/cytochalasin B-induced superoxide anion generation after 5 mins by spectrophotometry. The format is functional, cell-based. As to conditions: Neutrophil.

The structures appear in SMILES notation.

What is called IC50 is the concentration at which inhibition is half-maximal. What is called EC50 is the concentration at which the effect is half-maximal. High values mean a need for much substance, low ones an effect from little substance. In the case of `COc1cc2c3c(ccc2cc1C)C(C)(C)C(O)CC3` (racemic), the results for the concentration for half-maximal inhibition (IC50) in assay [1], in assay [2] and in assay [3] were 9.6 µM, 64.8 µM and more than 30 µM, respectively. In addition, in the assay on Hepatitis C virus, the EC50 was 23.6 µM.
Regarding `C=CCc1ccc(O)c(-c2ccc(O)c(CC=C)c2)c1` [HONOKIOL], in assay [2], it took 58.5 µM to reach half-maximal inhibition (IC50). The compound further had an EC50 in the assay on Hepatitis C virus of 9.4 µM.
Turning to `Cc1cc2ccc3c(c2cc1O)CCC(=O)C3(C)C`, the IC50 turned out to be 4.3 µM in assay [1], 26.9 µM in assay [2] and 4.4 µM in assay [3]. In the assay with Hepatitis C virus, this compound had an EC50 of 13 µM.
With `CNC(=O)c1cc(Oc2ccc(NC(=O)Nc3ccc(Cl)c(C(F)(F)F)c3)cc2)ccn1` [SORAFENIB], the IC50 came to 2 µM in assay [1] and 3.2 µM in assay [3].

Source of the values: ChEMBL document CHEMBL3102851, “Trinorditerpenes from the roots of Flueggea virosa” (Bioorg Med Chem Lett, 2014).
